These results are taken from US7700352B2, “Composition for culturing mouse pluripotent stem cells” (Riken, priority 2002, dated 2010).

Assay [1] relates to feeder cell-independent ES cells (E14tg2a, CGR8). Put plainly: Formation of colonies of undifferentiated ES cells in medium free of serum and feeder cells (GMEM + LIF + 2-ME + KSR), Leischman staining. Format: cell-based, mouse. The following applies: for capability to form a colony of undifferentiated cells: peptide at 1 μM in medium with LIF + 2-ME + KSR; for relative potency of the colony-forming capability: comparison among candidate peptides / ACTH fragments. Here is the method: One hundred of the feeder cell-independent ES cells (E14tg2a (Hooper, M. et al., Nature, 325, 292 (1987)), CGR8 (Mountford, P. et al., Proc. Natl. Acad. Sci. USA, 91, 4303 (1994)), and ES cells derived therefrom) were incubated on the gelatinated 12-well plate treated with a 0.1% (w/v) gelatin solution at 37° C. in 5% CO2 in one ml of a culture medium of Glasgow minimum essential medium (GMEM; Sigma) used as a cell culture minimum medium supplemented with (1) 1×10^3 U/ml LIF (ESGRO, Invitrogen), (3) 0.1 μM 2-mercaptoethanol (Nacalai Tesque), and (5) 10% (v/v) KSR (Invitrogen) per well.
Five days or more after the incubation, the supernatant was removed by aspiration, and then a Leischman staining liquid (1.5 g Leischman Staining: Sigma/L methanol) was added to the plate until the liquid covered all of the surface of the plate. The plate was left at room temperature for 10 minutes, and rinsed with water (Leischman staining). For the blue-stained colonies, no formation of colonies that maintained their morphology in an undifferentiated state was shown by the naked eye and light microscopy (FIG. 1 (g)). When the ES cells were incubated in a culture medium wherein the medium described above was supplemented with 0.3% (v/v) FCS (2), an average of 17 colonies of undifferentiated cells was observed (FIG. 1 (d)). […] Further, a formation of colonies of undifferentiated cells was observed when the ES cells were incubated at 1000 or more per well in the culture medium having the same composition ((1)+(3)+(5)). When the conditioned medium (CM) was added to a culture medium at a final concentration of 10% (v/v), and 100 ES cells per well were incubated therein, then an average of 7 colonies of undifferentiated cells was observed (FIG. 1 (f)).
Subsequently, a candidate peptide that had been selected from diverse known growth factors, cytokines, peptide hormones and the like, was added to the culture medium comprising (1)+(3)+(5), and the ES cells were incubated therein at 37° C. in 5% CO2 so that a capability of the candidate to form a colony of undifferentiated cells was determined. […] It should be noted that FIG. 1 (a) to (c) show the results obtained from the medium consisting of GMEM, LIF and 2-ME, supplemented with FCS+feeder cells, KSR+feeder cells, and FCS, respectively.
In a similar manner to the above, ACTH and the fragments thereof were added to the culture medium at a final concentration of 1 μM wherein (1) LIF, (3) 2-ME, and (5) KSR were supplemented to a cell culture minimum medium.
ACHT has been known to activate an ACTH receptor belonging to G-protein-coupled receptor families, which receptor activates an adenylate cyclase activity through the activation of trimeric G proteins containing the Gα s subunit. Now, to a cell culture minimum medium supplemented with (1) 1×10^3 U/ml LIF, (3) 0.1 μM 2-ME, (5) 10% (v/v) KSR, and (6) 10 μM ACTH, an inhibitor of an adenylate cyclase activity, SQ22536 (9-(tetrahydro-2-furanyl)adenine) (Sigma) at 100 μM, was further added, and the resultant medium was used to culture the ES cells in a similar manner to that of Example 1.
In order to check the effect of sole SQ22536, a cell culture minimum medium supplemented with (1) 1×10^3 U/ml LIF, (3) 0.1 μM 2-ME, (5) 10% (v/v) KSR, and (7) SQ22536 100 μM was used to culture the ES cells in a similar manner to that of Example 1. As a result, an average of nine colonies of undifferentiated cells was observed. Further, even when the medium added with another inhibitor of an adenylate cyclase activity, 2′,5′-dideoxyadenosine (Sigma) 500 μM, was used, an average of eight colonies of undifferentiated cells was observed. […]

For assay [2], the system named is inner cell masses of C57BL/6 blastocysts. Put plainly: Establishment of ES cell lines from inner cell masses of blastocysts in serum-free, feeder-free medium. The settings on record: 10 μM ACTH, LIF, 2-ME, KSR, fibronectin-coated plate; thirty C57BL/6 embryos. Format: cell-based, mouse. How it is done:
Thirty embryos at blastocyst stage of 3.5 days old were removed from C57BL/6 inbred mouse strains, and the inner cell masses isolated from the embryos by immunosurgery were individually incubated in the culture medium consisting of CCMM, (1) 1×10^3 U/ml LIF, (3) 0.1 μM 2-ME, 0.1 mM non-essential amino acids, 1 mM sodium pyruvate, (5) 10% (v/v) KSR, and (6) 10 μM ACTH on a plate coated with fibronectin.

Assay [3] has as its system ES cells injected into the mouse blastocyst. Kind of assay: Chimeric mouse production from ES cells injected into the mouse blastocyst (retention of pluripotency). The settings on record: ES cells cultured with 1 nM adrenocorticotropic hormone. Format: in vivo. How it is done: The undifferentiated ES cells derived from the colonies obtained by the culture with 1 nM adrenocorticotropic hormone in Example 1 as described above were further subcultured twice, and the resultant cells were injected into the mouse blastocyst to complete the transplantation into the pseudopregnant mouse uterus.

Setting [4] is: pertussis toxin 100 ng/ml added to medium with 10 μM ACTH.
The mark [5] stands for this setting: 10 μM ACTH (1-24), compared with 0.3% FCS or 10% CM.
Setting [6] is: SQ22536 100 μM added to medium with 10 μM ACTH, 7th day.

No end group written: not given here.

“ACTH (18-39): fragment of ACTH, amino acids 18 to 39 (RPVKVYPNGAEDESAEAFPLEF; Corticotropin; UniProt P01189 155-176, looked up, fragment)”: the “capability to form a colony of undifferentiated cells” value in assay [1] is reported as “showed to have no capability”.
Regarding “pituitary adenylate cyclase activating polypeptide (HSDGIFTDSYSRYRKQMAVKKYLAAVLGKRYKQRVKNK; ends and bridges not checked; UniProt P18509 132-169, looked up)”, in assay [1], the “capability to form a colony of undifferentiated cells” value was “formation of colonies of undifferentiated ES cells having the apparent morphology was observed”.
On to “ACTH (11-24): fragment of ACTH, amino acids 11 to 24 (KPVGKKRRPVKVYP; Corticotropin; UniProt P01189 148-161, looked up, fragment)”, for which the “capability to form a colony of undifferentiated cells” value in assay [1] is “showed to have the capability”.
For pertussis toxin, in assay [1] (setting [4]), the “effect of ACTH on colony formation” value was “the effect of ACTH was inhibited” and the “size of the colonies of undifferentiated cells” value was “drastically decreased”.
In the case of `C[C@H]1O[C@@H](n2cnc3c(N)ncnc32)C[C@@H]1O` [2′,5′-dideoxyadenosine], the “average number of colonies of undifferentiated cells” value in assay [1] (2′,5′-dideoxyadenosine 500 μM in LIF + 2-ME + KSR medium) is given as “eight”.
For “adrenocorticotropic hormone (SYSMEHFRWGKPVGKKRRPVKVYPNGAEDESAEAFPLEF; Corticotropin; UniProt P01189 138-176, looked up) [ACTH, peptide hormone composed of 39 amino acid residues (ACTH (1-39))]”, the “relative potency of the colony-forming capability” value in assay [1] was “the capability at the lowest concentration among the candidate peptides”. For the same compound, the “capability to form a colony of undifferentiated cells” value in assay [1] (listed as ACTH (1-39)) is reported as “showed to have the capability”. Further, the “capability to form a colony of undifferentiated cells” value in assay [1] (listed as adrenocorticotropic hormone) is recorded as “formation of colonies of undifferentiated ES cells having the apparent morphology was observed”. The “inner cells that initiated proliferation and finally established ES cell lines” value in assay [2] is on record as “at least two”. In addition, in assay [3], the “chimeric mice with an ES cell contribution ratio of 70% or more (hair color)” value is on record as 17 litters, the “contribution of the ES cells to the germ cell line (inbreeding)” value was “the inbreeding showed the contribution of the ES cells to the germ cell line”, the “female litters among the 17 chimeric litters” value was found to be 14 litters and the “litters survived three weeks or more after birth” value was found to be 30 litters. Also, in assay [3] (subcultured twice, injected into blastocyst), the “litters produced from 100 transplanted embryos” value worked out at 33 litters.
On to brain natriuretic peptide, for which, in assay [1], the “capability to form a colony of undifferentiated cells” value is listed as “formation of colonies of undifferentiated ES cells having the apparent morphology was observed”.
In the case of “ACTH (1-24): fragment of ACTH, amino acids from the N-terminus 1 to 24”, in assay [1] (setting [5]), the cell proliferation rate result was “equivalent to that in the case of 0.3% FCS or 10% CM” and the “formation rate of undifferentiated cell colonies” value is “equivalent to that in the case of 0.3% FCS or 10% CM”. In addition, in assay [1], the “relative potency of the colony-forming capability” value is recorded as “most potent capability among the fragments having a capability” and the “capability to form a colony of undifferentiated cells” value was “showed to have the capability”. Also, in assay [1] (final concentration of 0.1 μM), the “formation of the colony of undifferentiated cells” value is recorded as “showed the formation of the colony of undifferentiated cells”.
As to `Nc1ncnc2c1ncn2C1CCCO1` (stereo not drawn) [SQ22536, 9-(tetrahydro-2-furanyl)adenine], in assay [1] (setting [6]), the “formation of colonies of undifferentiated cells” value was “no formation of colonies of undifferentiated cells was unexpectedly inhibited” and the “size of individual colonies” value is “significantly increased”. Besides, the “average number of colonies of undifferentiated cells” value in assay [1] (SQ22536 100 μM alone (no ACTH) in LIF + 2-ME + KSR medium) is “nine”.
